From patent US20070213359A1 (ACADIA Pharmaceuticals Inc., priority 2005, published 2007)
Where two headings read alike, the source gives them in different places.

How the values were obtained:
Ghrelin receptor = Ghrelin receptor (Homo sapiens, UniProt Q92847); assay: Receptor Selection and Amplification Technology (R-SAT) assay; type: cell-based; set-up: expressed in transfected cells; host or cells: NIH3T3; settings: for IC50: '—' not defined (nd used separately), read-out: RSAT pIC50 (converted); for Emax: read-out: RSAT Eff(%)
Sequence of Ghrelin receptor (Q92847 whole entry): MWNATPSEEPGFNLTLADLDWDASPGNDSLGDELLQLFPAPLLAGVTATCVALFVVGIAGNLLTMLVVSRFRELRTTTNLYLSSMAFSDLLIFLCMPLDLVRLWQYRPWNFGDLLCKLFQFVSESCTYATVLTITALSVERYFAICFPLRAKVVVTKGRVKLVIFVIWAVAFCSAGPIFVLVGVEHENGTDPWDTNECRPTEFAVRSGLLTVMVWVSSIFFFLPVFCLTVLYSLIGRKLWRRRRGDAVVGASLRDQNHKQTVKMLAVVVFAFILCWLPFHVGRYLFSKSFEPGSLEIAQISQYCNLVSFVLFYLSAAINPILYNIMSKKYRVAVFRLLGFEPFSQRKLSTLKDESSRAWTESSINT

GHSR1a receptor = target: T1, GHSR1a receptor (Homo sapiens, UniProt Q92847); assay: 125I-Ghrelin binding assay; settings: displacement of 125I-ghrelin (0.053 nM), membranes of HEK293 cells transfected with GHSR1a, Cheng-Prussoff, '—' not defined
T1 construct: expressed in transfected cells; host or cells: HEK293 (membranes)
T1 sequence (Q92847 whole entry): as above
Procedure: Plasmid DNA containing the GHSR1a receptor (12.5 ug/dish) in 0.675 ml DMEM was transfected into the cells by mixing with 180 ul PolyFect, 15 min later mixing in 2.25 ml 10% CS/DMEM, and transferring the mixture into the dish. At 16-18 h post transfection, medium was replaced with 25 ml fresh 10% FCS/1% PSG/DMEM to each dish for another 18-20 h. At approximately 48 hours post-transfection, cells were harvested in ice-cold membrane buffer (20 mM HEPES, 6 mM MgCl2, 1 mM EDTA, pH to 7.2) using a cell scraper, and pelleted by centrifugation.
Pelleted cells were added to a nitrogen cavitation chamber and 900 bar of pressure applied for 30 min. The pressure was slowly released the cavitated cells collected in 50 ml falcon tubes. The tubes were centrifuged at 1000 rpm, 4° C. for 10 min, and the supernatant collected. This centrifugation and collection was repeated two more times until the supernatant was free of precipitate (membranes are still in suspension). The supernatant was poured into a 50 ml centrifuge tube and centrifuged at 10.000 rpm, 4° C. for 20 min. The supernatant was discarded and the pellet re-suspended in 750 μl membrane binding buffer using a chilled 1 ml syringe with 25G5/8 needle to re-suspend membranes. The protein concentration was determined using the BioRad Protein Assay Dye Reagent according to the manufacturers instructions. The protein concentration was adjusted to 5 mg/ml and aliquots snap-frozed and stored at −80 C until use.
Membranes were thawed rapidly; diluted with binding buffer (25 mM Hepes+5 mM MgCl2, 1 mM CaCl2, 2.5 mM EDTA and 0.2% BSA) to a protein concentration of 0.8 ug/30 ul and placed on ice. 96-well plates (U-bottom wells) were prepared with serial dilutions (8 doses, 40 ul/w) of the test compounds. Membranes (30 uL/well) were then added, and incubated with test ligands for 30 min at room temperature with shaking. […] Binding was terminated by filtration through GF/B filters (presoaked with 0.1% polyethylenimine) with a Brandel 96-well harvester. The filters were washed with ice-cold binding buffer (150 ml/plate) and allowed to air-dry for 30 min. 50 ul MicroScient-20 cocktail was added to each dried well, the plates were sealed, and counted for 2 min/well using a TopCount scintillation counter (Packard).

[1] = negative logarithm of ligand concentration causing 50% inhibition of constitutive receptor response, transfected NIH3T3 cells
[2] = percent inhibition at saturating ligand, normalized to reference ligand Substance P analog = 100%
[3] = read-out: Binding pKi (converted)

Structure (SMILES) | IC50 (Ghrelin receptor; [1]) [nM] | Emax (Ghrelin receptor; [2]) [%] | Ki (GHSR1a receptor; [3]) [nM] | RSAT Eff(%) (Ghrelin receptor; [2]) | IC50 (Ghrelin receptor; […]) [nM] | Emax (Ghrelin receptor) [%] | Ki (GHSR1a receptor; Binding pKi) [nM]
COc1ccccc1C1CCN(CCCn2cc(C(C)=O)c3cccc(C)c32)CC1 | 39.8 | 116 | 1260 | – | – | – | –
COc1ccccc1C1CCN(CCCn2cc(C(C)=O)c3ccccc32)CC1 [drawing 576] | 501 | – | 1260 | 106 | – | – | –
O=C(c1cn(CCCN2C3CCC2CC(Oc2ccccc2Cl)C3)c2ncccc12)C(F)(F)F (stereo not shown) | – | 23 | 251 | – | – | – | –
O=C(CC1CC2CCC(C1)N2CCCn1cc(C(=O)C(F)(F)F)c2cccnc21)c1ccc(Cl)cc1 (stereo not shown) | – | 10 | 631 | – | – | – | –
COc1cccc2c(C(=O)NCc3cccc(C)c3)cn(CCCN3C4CCC3CC(Oc3ccccc3Cl)C4)c12 (stereo not shown) | 5.01 | – | 20 | 121 | – | – | –
COc1cccc2c(C(C)=O)cn(CCCN3CCN(c4cccc(Cl)c4)CC3)c12 | 7.94 | 99 | 501 | – | – | – | –
CC(=O)c1cn(CCCN2CCCN(CCc3ccccc3)CC2)c2c(Br)cccc12 | – | – | – | – | 3.98 | 98 | 79.4
CCCCC1CCN(CCCn2cc(C(=O)C3CC3)c3cccc(OC)c32)CC1 | – | – | – | – | 3.98 | 95 | 398
COc1cccc2c(C#N)cn(CCCN3C4CCC3CC(Oc3ccc(F)cc3)C4)c12 (stereo not shown) | 15800 | 107 | 200 | – | – | – | –
CCCCC[C@H]1C[C@H]2CC[C@@H](C1)N2CCCn1cc(C(C)=O)c2cccc(OC)c21 | 2 | – | 316 | 113 | – | – | –
CC(=O)c1c(C)n(CCCN2C3CCC2CC(CCc2ccc(Cl)cc2)C3)c2c(Br)cccc12 (stereo not shown) | 12.6 | 69 | 316 | – | – | – | –
CC(=O)c1cn(CCCN2CCC(C(=O)c3ccccc3)CC2)c2c(Br)cccc12 | 79.4 | 84 | 1580 | – | – | – | –
COc1cccc2c(C(C)=O)cn(CCCN3CCC(c4nc5ccccc5s4)CC3)c12 [drawing 280] | 6.31 | – | 398 | 128 | – | – | –
COc1cccc2c(C(=O)c3ccccc3)cn(CCCNCCOc3ccccc3)c12 | – | – | 158 | – | 20 | 74 | –
COc1cccc2c(C(C)=O)cn(CCCN3CCC(Oc4ccccc4Cl)CC3)c12 | 15.8 | – | 794 | 98 | – | – | –
COc1cccc2c(C(C)=O)cn(CCCN3CCN(c4cccc(Cl)c4Cl)CC3)c12 | 7.94 | 103 | 398 | – | – | – | –
COc1cccc2c(C(C)=O)cn(CCCN3CCCN(Cc4ccc(F)cc4)CC3)c12 | 1.26 | – | 15.8 | 130 | – | – | –
CC(=O)c1cn(CCCN2CCCN(Cc3ccccc3Cl)CC2)c2c(Cl)cccc12 | 7.94 | 92 | 79.4 | – | – | – | –
COc1ccc2[nH]c3c(c2c1)CCN(CCCn1cc(C(C)=O)c2cccc(OC)c21)C3 | – | 123 | – | – | 50.1 | – | 1000
COc1cccc2c(C(=O)NCc3cccc(Cl)c3)cn(CCCN3CCN(CCOc4ccc(Cl)cc4)CC3)c12 | – | – | – | – | 251 | 104 | 15.8
COc1cccc2c(C(=O)Cc3ccccc3)cn(CCCN3CCN(CCOc4ccccc4)CC3)c12 | – | – | 39.8 | – | 12.6 | 99 | –
COc1cccc2c(C(C)=O)cn(CCCN3CCN(c4ccc(C(F)(F)F)cc4)CC3)c12 | 25.1 | 92 | 251 | – | – | – | –
CCCCC1CCN(CCCn2cc(C(C)=O)c3cccc(Br)c32)CC1 | 20 | 87 | 158 | – | – | – | –
Cc1cccc(CNC(=O)n2cc(CCCN3C4CCC3CC(CCc3ccccc3)C4)c3ccccc32)c1 (stereo not shown) | 31.6 | 114 | 158 | – | – | – | –
COc1cccc2c(C(=O)NCc3cccc(C)c3)cn(CCCN3CCC(Oc4ccccc4Cl)CC3)c12 | – | – | – | – | 12.6 | 96 | 79.4

Structure (SMILES) | IC50 (Ghrelin receptor; [1]) [nM] | Emax (Ghrelin receptor; [2]) [%] | Ki (GHSR1a receptor; [3]) [nM] | RSAT Eff(%) (Ghrelin receptor; [2]) | IC50 (Ghrelin receptor; […]) [nM] | Emax (Ghrelin receptor) [%] | Ki (GHSR1a receptor; Binding pKi) [nM]
CCCCC[C@H]1C[C@H]2CC[C@@H](C1)N2CCCn1cc(C(=O)NCc2cccc(Cl)c2)c2cccc(OC)c21 | – | – | – | – | 50.1 | 123 | 200
CC(=O)c1c(C)n(CCCN2C3CCC2CC(CC(=O)c2ccc(Cl)cc2)C3)c2c(Br)cccc12 (stereo not shown) | 631 | 64 | 63.1 | – | – | – | –
COc1cccc2c(C(=O)NCc3cccc(C)c3)cn(CCCN3CCN(CCOc4ccccc4)CC3)c12 | – | – | – | – | 20 | 89 | 7.94
COc1ccccc1C1CCN(CCCn2cc(C(C)=O)c3cccc(Br)c32)CC1 | 50.1 | 109 | 316 | – | – | – | –
CC(=O)c1cn(CCCN2CCC(Oc3ccc(F)cc3)CC2)c2ccccc12 [drawing 551] | 398 | – | 2000 | 96 | – | – | –
COc1ccccc1C1CCN(CCCn2cc(C(=O)C3CC3)c3cccc(OC)c32)CC1 | – | – | – | – | 5.01 | 102 | 158
COc1cccc2c(C(C)=O)cn(CCCN3CCN(c4ccccc4Cl)CC3)c12 | 25.1 | 108 | 2510 | – | – | – | –
CC(=O)c1cn(CCCN2CCC(Oc3cccc(Cl)c3)CC2)c2c(C#N)cccc12 | 7.94 | 101 | 158 | – | – | – | –
CCc1cccc2c(C(C)=O)cn(CCCN3CCC(CCOc4ccc(Cl)cc4)CC3)c12 | – | 76 | 501 | – | – | – | –
COc1cccc2c(C(=O)NCC(C)C)cn(CCCN3CCC(Oc4ccccc4Cl)CC3)c12 | 7.94 | – | 63.1 | – | – | 100 | –
COc1cccc2c(C(=O)c3ccccc3)cn(CCCN3CCC(Oc4ccc(F)cc4)CC3)c12 | – | – | 1260 | – | 25.1 | 107 | –
CC(=O)c1cn(CCCN2CCCN(Cc3ccccc3Cl)CC2)c2ncccc12 | 3.16 | 115 | 25.1 | – | – | – | –
COc1cccc2c(C(C)=O)cn(CCCN3CCCN(Cc4ccccc4Cl)CC3)c12 | 0.251 | – | 10 | 128 | – | – | –
CC(=O)c1cn(CCCN2C3CCC2CC(CCc2ccccc2)C3)c2ccccc12 (stereo not shown) [drawing 433] | 63.1 | – | 1580 | 96 | – | – | –
CC(C)CC(=O)c1cn(CCCN2CCC(Oc3ccc(F)cc3)CC2)c2ccccc12 | – | – | 1000 | – | 100 | 93 | –
COc1cccc2c(C(=O)NCc3cccc(C)c3)cn(CCCN3CCC(c4nc5ccccc5s4)CC3)c12 | – | – | – | – | 2.51 | 94 | 63.1
COc1cccc2c(C(=O)NCc3cccc(Cl)c3)cn(CCCNCCOc3ccccc3)c12 | – | – | – | – | 251 | 120 | 39.8
CC(=O)c1c(C)n(CCCN2C3CCC2CC(CCc2ccccc2)C3)c2c(Br)cccc12 (stereo not shown) | – | – | 200 | – | – | – | –
COc1cccc2c(C(=O)NCc3cccc(C)c3)cn(CCCN3[C@@H]4CC[C@H]3CC(CC(=O)c3ccccc3)C4)c12 (stereo partly shown) | – | – | – | – | – | – | 63.1
CCc1cccc2c(C(C)=O)cn(CCCN3C4CCC3CC(CC(=O)c3ccc(Cl)cc3)C4)c12 (stereo not shown) | – | – | 501 | – | – | – | –
CCCOC1CCN(CCCn2cc(C(C)=O)c3cccc(OC)c32)CC1 [drawing 713] | – | – | 1260 | – | – | – | –
COc1cccc2c(C(=O)NCC(C)C)cn(CCCN3CCC(c4nc5ccccc5s4)CC3)c12 [drawing 706] | – | – | – | – | – | – | 501
O=C(c1cn(CCCN2C3CCC2CC(CCc2ccc(Cl)cc2)C3)c2ncccc12)C(F)(F)F (stereo not shown) | – | – | 251 | – | – | – | –
CC(=O)c1c(C)n(CCCN2CCC(CCOc3ccc(Cl)cc3)CC2)c2c(Br)cccc12 | – | – | 631 | – | – | – | –
